Measured values taken from publication PMC6523531, “Mechanistic Studies on the Absorption-Enhancing Effects of Gemini Surfactant on the Intestinal Absorption of Poorly Absorbed Hydrophilic Drugs in Rats” (Pharmaceutics, 2019).

Test system: brush-border membrane vesicles (BBMVs)
Assay: Membrane fluidity of BBMVs by fluorescence polarization (fluorescence anisotropy)
Settings: rat BBMVs, 37 °C, SLG-30 0.1-1.0% v/v, vs control, n = 4
Experimental: To prepare BBMVs, we followed the methods as reported previously with a slight modification. Briefly, an in situ small intestinal loop was prepared in each rat, as mentioned above, and then, PBS (pH 7.4) was administered into the loop. The fat was trimmed off from the small intestine and mesentery. Then, the whole small intestine was soaked in ice-cold PBS (pH 7.4). The small intestine was divided into 10 cm segments. Mucosa was scraped out with a slide glass from each of these segments and used for subsequent studies. BBMVs were prepared by the divalent cation precipitation method using MgCl2 in the presence of ethylenebis (oxyethylenenitrilo) tetraacetic acid (EGTA). Briefly, the collected mucosa was homogenized in a buffer containing mannitol (300 mM), EGTA (5 mM), and Tris (pH 7.4) (12 mM) by using a tissue homogenizer. An aqueous solution of 10 mM magnesium chloride was added to the homogenate. The homogenate was centrifuged at 3000× g for 15 min. The supernatant was then centrifuged at 32,000× g for 30 min. The pellet was resuspended in a buffer containing mannitol (300 mM), EGTA (5 mM), and Tris (pH 7.4) (12 mM) by using a 26-G needle. The protein concentration was determined by the BCA method using bovine serum albumin as a standard, and the final concentration was adjusted to 1 mg/ml in each Eppendorf tube. The samples were frozen by liquid nitrogen and kept at −80 °C for further studies.
The BBMVs (100 μg protein) were incubated with 1 μM DPH, with 0.5 μM tma-DPH or with 5 μM DNS-Cl in HEPES-Tris buffer (25 mM HEPES, 5.4 mM KCl, 1.8 mM CaCl2, 0.8 mM MgSO4, 140 mM NaCl, 5 mM glucose, pH 7.4 adjusted by 1 M Tris) in the dark at 37 °C for 30 min [25, 28]. Then, various concentrations (0.1% v/v, 0.25% v/v, 0.5% v/v, and 1.0% v/v) of SLG-30 were added. Then, the samples were incubated in the dark for 1 min at 37 °C. For the control group, the same procedure was carried out by adding the HEPES-Tris buffer only. The fluorescence intensities and the steady-state polarization of fluorescence expressed as the fluorescence anisotropy, r, of the labeled membrane vesicles were measured at 37 °C. The excitation and emission wavelengths were λex = 360 nm, and λem = 430 nm for DPH and tma-DPH and λex = 380 nm and λem = 480 nm for DNS-Cl. The measurements were carried out by using a Hitachi Spectrofluorometer (F-2000 Spectrofluorometer, Hitachi Seisakusho Corp, Yokohama, Japan) equipped with a polarizer set.
The fluorescence anisotropy (r) was calculated using the following equation: r=IV−IH/IV+2IH where IV and IH respectively represent the […] fluorescence intensities to the polarized excitation plane.

CCCCCCCCCCCC(=O)NC(CCC(=O)NCCCCC(NC(=O)CCC(NC(=O)CCCCCCCCCCC)C(=O)O)C(=O)O)C(=O)O (stereo not drawn) [SLG-30, sodium dilauramidoglutamide lysine]
fluorescence anisotropy of tma-DPH (outer lipid bilayers) (0.5 μM tma-DPH): significantly increased | fluorescence anisotropy of DPH (inner lipid bilayers) (1 μM DPH): slightly decreased | fluorescence anisotropy of DNS-Cl (protein portion) (5 μM DNS-Cl, p < 0.01): significantly reduced
